The target of the assay is recombinant human PKR enzyme (Homo sapiens (Human), UniProt P30613). In words: Pyruvate kinase (PKR) activity experiment. Format: biochemical. The settings on record: activation of recombinant human PKR enzyme. The procedure: • 1). A recombinant human PKR enzyme solution was formulated at a concentration of 60 ng/well (a 20 μL reaction system), and 5 μL of the solution was added into each well of a black transparent bottom 384-well plate. • 2). Compound solutions were formulated at different concentrations, with the final concentrations of 1000/300/100 nM (containing 1% DMSO). Each 5 μL of the compound solution was added into the plate in item 3.1 and mixed well. The plate was incubated at room temperature for 10 min. • 3). A reaction system was formulated according to the instructions of a kit (as shown in the table below), and 10 μL of the reaction system was added into each well of the 384-well plate, and mixed uniformly with the solution in item 3.2.
• 4). The 384-well plate was placed on a microplate reader to detect the fluorescence value at 540/590 nm, where the value was read every 2 minutes and the detection was conducted continuously for 1 hour. • 5). The Slope value within the detection time was calculated, and the 0.1% DMSO well was used as a control well to calculate a compound activation rate.
[formula] • 6). Fitting dose-effect curve
With the log value of the compound concentration as the X axis and the percentage activation rate as the Y axis, a dose-effect curve was fitted with the log(agonist) vs. response-variable slope of the analysis software GraphPad Prism 5, and the AC50 value of the activity of each compound against PKR was obtained.

We go through 27 molecules from US20250145635A1, “COMPOUND CONTAINING BIS(AZANYLYLIDENE) SULFONYL STRUCTURE AND USE THEREOF IN MEDICINE” (SCINNOHUB PHARMACEUTICAL CO., LTD., priority 2021, published 2025).

Chain of recombinant human PKR enzyme (P30613 whole entry): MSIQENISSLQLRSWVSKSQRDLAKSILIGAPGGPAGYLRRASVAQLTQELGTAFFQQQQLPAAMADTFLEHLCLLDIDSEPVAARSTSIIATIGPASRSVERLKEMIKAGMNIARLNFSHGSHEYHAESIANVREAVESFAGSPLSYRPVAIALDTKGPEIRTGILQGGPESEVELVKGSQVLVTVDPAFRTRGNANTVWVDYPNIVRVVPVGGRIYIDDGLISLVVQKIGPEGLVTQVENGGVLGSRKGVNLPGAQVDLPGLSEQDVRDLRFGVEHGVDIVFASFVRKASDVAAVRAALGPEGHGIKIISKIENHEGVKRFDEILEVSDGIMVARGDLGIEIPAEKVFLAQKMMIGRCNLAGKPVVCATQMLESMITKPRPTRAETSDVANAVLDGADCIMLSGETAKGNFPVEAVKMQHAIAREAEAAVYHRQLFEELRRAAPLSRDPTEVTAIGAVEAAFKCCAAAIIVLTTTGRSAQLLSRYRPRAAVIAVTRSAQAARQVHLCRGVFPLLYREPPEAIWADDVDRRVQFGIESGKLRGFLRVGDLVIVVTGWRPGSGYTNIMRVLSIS

As usually defined, the AC50 is the midpoint of the concentration-response curve, whichever way the signal moves. Turning to `O=C([C@H](CO)c1ccccc1)N1CC(=C2CN(S(=O)(=O)c3ccc(OC(F)F)c(F)c3)C2)C1` [Compound 11], the AC50 was in the range of 101 to 300 nM.

For the molecule `O=C([C@@H](CO)c1ccc(F)cc1)N1CC(=C2CN(S(=O)(=O)c3ccccn3)C2)C1` [Compound 55, (R)-2-(4-fluorophenyl)-3-hydroxy-1-(1′-(pyridin-2-ylsulfonyl)-1′,4′-dihydro-2H,2′H-[3,3′-diazetidinylidene]-1(4H)-yl)propan-1-one], the AC50 was in the range of 300 to 1000 nM.

In the case of `CN1CCN(c2cccc(C(O)C(=O)N3CC(=C4CN(S(=O)(=O)c5ccc6ncsc6c5)C4)C3)c2)CC1` (stereo not drawn) [Compound 43, 1-(1′-(benzo[d]thiazol-6-ylsulfonyl)-1′,4′-dihydro-2H,2′H-[3,3′-diazetidinylidene]-1(4H)-yl)-2-hydroxy-2-(3-(4-methylpiperazin-1-yl)phenyl)ethan-1-one], the AC50 lay within 300 to 1000 nM.

Take `N#Cc1ccc(S(=O)(=O)N2CC(=C3CN(C(=O)[C@H](CO)c4ccccc4)C3)C2)nc1` [Compound 70, (S)-6-((1′-(3-hydroxy-2-phenylpropionyl)-1′,4′-dihydro-2H,2′H-[3,3′-diazetidinylidene]-1(4H)-yl)sulfonyl)nicotinonitrile]: the AC50 lay within 300 to 1000 nM.

`O=C(C(CO)c1ccc(Cl)cc1)N1CC(=C2CN(S(=O)(=O)c3ccccn3)C2)C1` (stereo not drawn) [Compound 75, 2-(4-chlorophenyl)-3-hydroxy-1-(1′-(pyridin-2-ylsulfonyl)-1′,4′-dihydro-2H,2′H-[3,3′-diazetidinylidene]-1(4H)-yl)propan-1-one]: the AC50 lay within 101 to 300 nM.

For `O=C([C@H](CO)c1ccc(F)cc1)N1CC(=C2CN(S(=O)(=O)c3ccc4ncsc4c3)C2)C1` [Compound 25, (S)-1-(1′-(benzo[d]thiazol-6-ylsulfonyl)-1′,4′-dihydro-2H,2′H-[3,3′-diazetidinylidene]-1(4H)-yl)-2-(4-fluorophenyl)-3-hydroxypropan-1-one], the AC50 is less than 100 nM.

Regarding `Cc1ccc(C(CO)C(=O)N2CC(=C3CN(S(=O)(=O)c4ccc5ncsc5c4)C3)C2)cc1` (stereo not drawn) [Compound 45, 1-(1′-(benzo[d]thiazol-6-ylsulfonyl)-1′,4′-dihydro-2H,2′H-[3,3′-diazetidinylidene]-1(4H)-yl)-3-hydroxy-2-(p-tolyl)propan-1-one], the AC50 was less than 100 nM.

Turning to `O=C([C@H](CO)c1ccccc1)N1CC(=C2CN(S(=O)(=O)c3ccc4c(n3)OCCO4)C2)C1` [Compound 49, (S)-1-(1′-((2,3-dihydro-[1,4]dioxino[2,3-b]pyridin-6-yl)sulfonyl)-1′,4′-dihydro-2H,2′H-[3,3′-diazetidinylidene]-1(4H)-yl)-3-hydroxy-2-phenylpropan-1-one], the AC50 is less than 100 nM.

In the case of `COc1ccc(C(CO)C(=O)N2CC(=C3CN(S(=O)(=O)c4ccc5ncsc5c4)C3)C2)cc1` (stereo not drawn) [Compound 44, 1-(1′-(benzo[d]thiazol-6-ylsulfonyl)-1′,4′-dihydro-2H,2′H-[3,3′-diazetidinylidene]-1(4H)-yl)-3-hydroxy-2-(4-methoxyphenyl)propan-1-one], the AC50 is less than 100 nM.

Take `CC(C)(O)C(C(=O)N1CC(=C2CN(S(=O)(=O)c3ccc(OC(F)F)cc3)C2)C1)c1ccccc1` (stereo not drawn) [Compound 17, 1-(1′-((4-(difluoromethoxy)phenyl)sulfonyl)-1′,4′-dihydro-2H,2′H-[3,3′-diazetidinylidene]-1(4H)-yl)-3-hydroxy-3-methyl-2-phenylbutan-1-one]: the AC50 is 300 to 1000 nM.

With `CN(C)CC(C(=O)N1CC(=C2CN(S(=O)(=O)c3ccc4ncsc4c3)C2)C1)c1ccc(F)c(Cl)c1` (stereo not drawn) [Compound 42, 1-(1′-(benzo[d]thiazol-6-ylsulfonyl)-1′,4′-dihydro-2H,2′H-[3,3′-diazetidinylidene]-1(4H)-yl)-2-(3-chloro-4-fluorophenyl)-3-(dimethylamino)propan-1-one], the AC50 was 300 to 1000 nM.

`COc1ccc(S(=O)(=O)N2CC(=C3CN(C(=O)[C@@H](CO)c4ccc(F)cc4F)C3)C2)nc1` [Compound 88, (R)-2-(2,4-difluorophenyl)-3-hydroxy-1-(1′-((5-methoxypyridin-2-yl)sulfonyl)-1′,4′-dihydro-2H,2′H-[3,3′-diazetidinylidene]-1(4H)-yl)propan-1-one]: the AC50 was in the range of 300 to 1000 nM.

On to `CNCC(C(=O)N1CC(=C2CN(S(=O)(=O)c3ccc4c(c3)OCCO4)C2)C1)c1cccc(OC)c1` (stereo not drawn) [Compound 15, 1-(1′-((2,3-dihydrobenzo[b][1,4]dioxin-6-yl)sulfonyl)-1′,4′-dihydro-2H,2′H-[3,3′-diazetidinylidene]-1(4H)-yl)-2-(3-methoxyphenyl)-3-(methylamino)propan-1-one], for which the half-maximal activity concentration (AC50) fell in the range of 300 to 1000 nM.

Regarding `O=C([C@H](CO)c1ccccc1)N1CC(=C2CN(S(=O)(=O)c3ccc(F)cc3)C2)C1` [Compound 10], the AC50 lay within 101 to 300 nM.

As for `CN1CCN(c2cccc(C(CO)C(=O)N3CC(=C4CN(S(=O)(=O)c5ccc6ncsc6c5)C4)C3)c2)CC1` (stereo not drawn) [Compound 33], the AC50 fell in the range of 300 to 1000 nM.

`N#Cc1ccc(S(=O)(=O)N2CC(=C3CN(C(=O)[C@H](CO)c4ccccc4)C3)C2)cc1` [Compound 65, (S)-4-(1′-(3-hydroxy-2-phenylpropionyl)-1′,4′-dihydro-2H,2′H-[3,3′-diazetidinylidene]-1(4H)-ylsulfonyl)benzonitrile]: the AC50 lay in the range of 101 to 300 nM.

As to `O=C(C(CO)c1cc(F)cc(Cl)c1)N1CC(=C2CN(S(=O)(=O)c3ccccn3)C2)C1` (stereo not drawn) [Compound 86, 2-(3-chloro-5-fluorophenyl)-3-hydroxy-1-(1′-(pyridin-2-ylsulfonyl)-1′,4′-dihydro-2H,2′H-[3,3′-diazetidinylidene]-1(4H)-yl)propan-1-one], the AC50 is 300 to 1000 nM.

As to `Cn1cnc2ccc(S(=O)(=O)N3CC(=C4CN(C(=O)[C@H](CO)c5ccccc5)C4)C3)cc21` [Compound 63, (S)-3-hydroxy-1-(1′-((1-methyl-1H-benzimidazol-6-yl)sulfonyl)-1′,4′-dihydro-2H,2′H-[3,3′-diazetidinylidene]-1(4H)-yl)-2-phenylpropan-1-one], the AC50 lay in the range of 101 to 300 nM.

Take `Cc1nc2ccc(S(=O)(=O)N3CC(=C4CN(C(=O)[C@H](CO)c5ccccc5)C4)C3)cc2s1` [Compound 35, (S)-3-hydroxy-1-(1′-((2-methylbenzo[d]thiazol-6-yl)sulfonyl)-1′,4′-dihydro-2H,2′H-[3,3′-diazetidinylidene]-1(4H)-yl)-2-phenylpropan-1-one]: the AC50 is less than 100 nM.

As for `O=C(C(CO)C1CCCCC1)N1CC(=C2CN(S(=O)(=O)c3ccccn3)C2)C1` (stereo not drawn) [Compound 90, 2-cyclohexyl-3-hydroxy-1-(1′-(pyridin-2-ylsulfonyl)-1′,4′-dihydro-2H,2′H-[3,3′-diazetidinylidene]-1(4H)-yl)propan-1-one], the AC50 was in the range of 101 to 300 nM.

For the molecule `O=C([C@H](CO)c1ccccc1)N1CC(=C2CN(S(=O)(=O)c3ccc(OC(F)F)cc3)C2)C1` [Compound 7, (S)-1-(1′-((4-(difluoromethoxy)phenyl)sulfonyl)-1′,4′-dihydro-2H,2′H-[3,3′-diazetidinylidene]-1(4H)-yl)-3-hydroxy-2-phenylpropan-1-one], the AC50 was 101 to 300 nM.

Take `Cn1cc(-c2ccc(C(CO)C(=O)N3CC(=C4CN(S(=O)(=O)c5ccc6ncsc6c5)C4)C3)cc2)cn1` (stereo not drawn) [Compound 34, 1-(1′-(benzo[d]thiazol-6-ylsulfonyl)-1′,4′-dihydro-2H,2′H-[3,3′-diazetidinylidene]-1(4H)-yl)-3-hydroxy-2-(4-(1-methyl-1H-pyrazol-4-yl)phenyl)propan-1-one]: the AC50 was 300 to 1000 nM.

Turning to `O=C(C(CO)c1ccc(F)cc1)N1CC(=C2CN(S(=O)(=O)c3ccc4c(c3)OC(F)(F)O4)C2)C1` (stereo not drawn) [Compound 36, 1-(1′-((2,2-difluorobenzo[d][1,3]dioxolan-5-yl)sulfonyl)-1′,4′-dihydro-2H,2′H-[3,3′-diazetidinylidene]-1(4H)-yl)-2-(4-fluorophenyl)-3-hydroxypropan-1-one], the AC50 was 300 to 1000 nM.

As to `CN1CCOc2ccc(S(=O)(=O)N3CC(=C4CN(C(=O)[C@H](CO)c5ccccc5)C4)C3)cc21` [Compound 39, (S)-3-hydroxy-1-(1′-((4-methyl-3,4-dihydro-2H-benzo[b][1,4]oxazin-6-yl)sulfonyl)-1′,4′-dihydro-2H,2′H-[3,3′-diazetidinylidene]-1(4H)-yl)-2-phenylpropan-1-one], the AC50 was less than 100 nM.

For `O=C([C@H](CO)c1ccccc1)N1CC(=C2CN(S(=O)(=O)c3cccnc3)C2)C1` [Compound 68, (S)-3-hydroxy-2-phenyl-1-(1′-(pyridin-3-ylsulfonyl)-1′,4′-dihydro-2H,2′H-[3,3′-diazetidinylidene]-1(4H)-yl)propane-1-one], the AC50 fell in the range of 300 to 1000 nM.

Take `O=C(C(CO)c1ccc2ccccc2c1)N1CC(=C2CN(S(=O)(=O)c3ccc4ncsc4c3)C2)C1` (stereo not drawn) [Compound 32, 1-(1′-(benzo[d]thiazol-6-ylsulfonyl)-1′,4′-dihydro-2H,2′H-[3,3′-diazetidinylidene]-1(4H)-yl)-3-hydroxy-2-(naphthalene-2-yl)propan-1-one]: the AC50 was less than 100 nM.

Take `O=C([C@H](CO)c1ccccc1)N1CC(=C2CN(S(=O)(=O)c3ccc(OC4CC4)cn3)C2)C1` [Compound 82, (S)-1-(1′-((5-cyclopropoxypyridin-2-yl)sulfonyl)-1′,4′-dihydro-2H,2′H-[3,3′-diazetidinylidene]-1(4H)-yl)-3-hydroxy-2-phenylpropan-1-one]: the AC50 is less than 100 nM.
